# Results as given in patent US20250215030A1, “STAT MODULATORS AND USES THEREOF” (Recludix Pharma, Inc., priority 2022, published 2025).
# Legend:
# [1] = target: T1, Recombinant STAT6 protein (STAT6(W123-T658)) (Homo sapiens, UniProt P42226); assay: STAT6 Fluorescence Polarization (FP) Assay; format: binding; conditions: STAT6(W123-T658) 250 nM, probe 5-FAM-ApYKPFQDLI-NH2 2 nM, 45-minute incubation
# T1 construct: STAT6(W123-T658)
# T1 sequence (P42226 123-658): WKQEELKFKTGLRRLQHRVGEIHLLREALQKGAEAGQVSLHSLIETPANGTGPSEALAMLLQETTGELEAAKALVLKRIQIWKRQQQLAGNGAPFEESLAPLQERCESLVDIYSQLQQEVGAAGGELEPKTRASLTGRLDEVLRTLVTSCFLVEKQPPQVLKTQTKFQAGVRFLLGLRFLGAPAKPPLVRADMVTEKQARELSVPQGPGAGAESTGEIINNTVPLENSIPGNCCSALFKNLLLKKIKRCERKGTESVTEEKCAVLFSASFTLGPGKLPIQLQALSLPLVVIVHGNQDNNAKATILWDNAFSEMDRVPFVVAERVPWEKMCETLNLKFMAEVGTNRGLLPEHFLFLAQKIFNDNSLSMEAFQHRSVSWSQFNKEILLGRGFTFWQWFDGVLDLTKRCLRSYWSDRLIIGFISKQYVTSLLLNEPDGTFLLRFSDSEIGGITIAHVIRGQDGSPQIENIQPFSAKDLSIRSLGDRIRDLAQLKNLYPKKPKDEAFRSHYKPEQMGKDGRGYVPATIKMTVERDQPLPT
# In short: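 STAT6 (W123-T658) at 250 nM mixed with 2 nM 5-FAM-ApYKPFQDLI-NH2 probe in HEPES pH 7.4 buffer with DTT and Tween 20, 1% DMSO final. Polarization read after 45 min at room temperature; IC50 by nonlinear regression of mP versus log concentration, reported in bins A–D.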
# [2] = target: T2, Recombinant STAT3 protein (STAT3(G127-I722)) (Homo sapiens, UniProt P40763); assay: STAT3 Fluorescence Polarization (FP) Assay; format: binding; conditions: STAT3(G127-I722) 25 nM, probe 5-FAM-GpYLPQTV-NH2 2 nM, 45-minute incubation
# T2 construct: STAT3(G127-I722)
# In short: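 STAT3(G127-I722) at 25 nM and 5-FAM-GpYLPQTV-NH2 probe at 2 nM in HEPES pH 7.4 buffer with NaCl, EDTA, Tween 20, DTT; 1% DMSO. FP read after 45 min at room temperature; IC50 by nonlinear regression of mP vs log concentration, binned A ≤100 nM to D >10 μM.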
# T2 sequence (P40763 127-722, species assumed): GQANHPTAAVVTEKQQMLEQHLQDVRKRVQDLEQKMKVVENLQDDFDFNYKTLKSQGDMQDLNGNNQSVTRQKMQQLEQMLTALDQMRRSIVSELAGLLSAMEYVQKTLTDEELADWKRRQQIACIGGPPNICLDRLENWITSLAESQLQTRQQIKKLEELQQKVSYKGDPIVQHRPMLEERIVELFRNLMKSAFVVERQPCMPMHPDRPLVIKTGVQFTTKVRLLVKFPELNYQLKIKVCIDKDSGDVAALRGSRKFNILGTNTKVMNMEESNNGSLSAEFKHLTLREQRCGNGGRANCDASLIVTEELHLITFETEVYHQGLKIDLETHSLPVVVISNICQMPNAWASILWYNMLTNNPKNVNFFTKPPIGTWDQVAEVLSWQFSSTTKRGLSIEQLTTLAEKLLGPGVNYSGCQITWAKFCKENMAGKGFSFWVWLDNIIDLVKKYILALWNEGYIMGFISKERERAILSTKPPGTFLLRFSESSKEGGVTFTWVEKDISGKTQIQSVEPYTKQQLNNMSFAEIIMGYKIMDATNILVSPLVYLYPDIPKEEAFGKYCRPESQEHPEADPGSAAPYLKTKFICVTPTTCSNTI
SMILES,IC50 [1],IC50 [2]
"O=C(N[C@H]1C[C@H]2C[C@H]2C[C@H]2CC[C@@H](C(=O)NC3CN(C(=O)CCC(F)(F)F)C3)N2C1=O)c1cc2cc(C(F)(F)P(=O)(O)O)ccc2s1 [Compound 63, (difluoro(2-(((3S,6S,7aR,8aS,9aR)-5-oxo-3-((1-(4,4,4-trifluorobutanoyl)azetidin-3-yl)carbamoyl)decahydro-1H-cyclopropa[d]pyrrolo[1,2-a]azocin-6-yl)carbamoyl)benzo[b]thiophen-5-yl)methyl)phosphonic acid]",3 to 30 µM,< 0.1 µM
"O=C(N[C@H]1C[C@@H]2C[C@@H]2C[C@H]2CC[C@@H](C(=O)N3CC(F)(c4ccccc4)C3)N2C1=O)c1cc2cc(C(F)(F)P(=O)(O)O)ccc2s1 [Compound 64, (difluoro(2-(((3S,6S,7aS,8aR,9aR)-3-(3-fluoro-3-phenylazetidine-1-carbonyl)-5-oxodecahydro-1H-cyclopropa[d]pyrrolo[1,2-a]azocin-6-yl)carbamoyl)benzo[b]thiophen-5-yl)methyl)phosphonic acid]",0.3 to 3 µM,< 0.1 µM
"O=C(N[C@H]1C[C@@H]2C[C@@H]2C[C@H]2CC[C@@H](C(=O)N3CC(c4ncccn4)C3)N2C1=O)c1cc2cc(C(F)(F)P(=O)(O)O)ccc2s1 [Compound 65, (difluoro(2-(((3S,6S,7aS,8aR,9aR)-5-oxo-3-(3-(pyrimidin-2-yl)azetidine-1-carbonyl)decahydro-1H-cyclopropa[d]pyrrolo[1,2-a]azocin-6-yl)carbamoyl)benzo[b]thiophen-5-yl)methyl)phosphonic acid]",3 to 30 µM,< 0.1 µM
"O=C(N[C@H]1C[C@@H]2C[C@@H]2[C@H]2CC[C@@H](C(=O)N3CC(c4cccnc4)C3)N2C1=O)c1cc2cc(C(F)(F)P(=O)(O)O)ccc2s1 [Compound 67, (difluoro(2-(((3S,6S,7aS,8aS,8bR)-5-oxo-3-(3-(pyridin-3-yl)azetidine-1-carbonyl)decahydrocyclopropa[c]pyrrolo[1,2-a]azepin-6-yl)carbamoyl)benzo[b]thiophen-5-yl)methyl)phosphonic acid]",0.3 to 3 µM,< 0.1 µM
"Cc1cccc(C2CN(C(=O)[C@@H]3CC[C@@H]4C[C@@H]5C[C@@H]5C[C@H](NC(=O)c5cc6cc(C(F)(F)P(=O)(O)O)ccc6s5)C(=O)N43)C2)c1 [Compound 68, (difluoro(2-(((3S,6S,7aR,8aS,9aR)-5-oxo-3-(3-(m-tolyl)azetidine-1-carbonyl)decahydro-1H-cyclopropa[d]pyrrolo[1,2-a]azocin-6-yl)carbamoyl)benzo[b]thiophen-5-yl)methyl)phosphonic acid]",0.3 to 3 µM,< 0.1 µM
"CS(=O)(=O)CC1CN(C(=O)[C@@H]2CC[C@@H]3C[C@@H]4C[C@@H]4C[C@H](NC(=O)c4cc5cc(C(F)(F)P(=O)(O)O)ccc5s4)C(=O)N32)C1 [Compound 69, (difluoro(2-(((3S,6S,7aR,8aS,9aR)-3-(3-((methylsulfonyl)methyl)azetidine-1-carbonyl)-5-oxodecahydro-1H-cyclopropa[d]pyrrolo[1,2-a]azocin-6-yl)carbamoyl)benzo[b]thiophen-5-yl)methyl)phosphonic acid]",3 to 30 µM,< 0.1 µM
"N#CC1(c2ccccn2)CN(C(=O)[C@@H]2CC[C@@H]3C[C@@H]4C[C@@H]4C[C@H](NC(=O)c4cc5cc(C(F)(F)P(=O)(O)O)ccc5s4)C(=O)N32)C1 [Compound 70, ((2-(((3S,6S,7aR,8aS,9aR)-3-(3-cyano-3-(pyridin-2-yl)azetidine-1-carbonyl)-5-oxodecahydro-1H-cyclopropa[d]pyrrolo[1,2-a]azocin-6-yl)carbamoyl)benzo[b]thiophen-5-yl)difluoromethyl)phosphonic acid]",0.3 to 3 µM,< 0.1 µM
"O=C(N[C@H]1C[C@H]2C[C@H]2C[C@H]2CC[C@@H](C(=O)N3CC(C(=O)N4CCOCC4)C3)N2C1=O)c1cc2cc(C(F)(F)P(=O)(O)O)ccc2s1 [Compound 71, (difluoro(2-(((3S,6S,7aR,8aS,9aR)-3-(3-(morpholine-4-carbonyl)azetidine-1-carbonyl)-5-oxodecahydro-1H-cyclopropa[d]pyrrolo[1,2-a]azocin-6-yl)carbamoyl)benzo[b]thiophen-5-yl)methyl)phosphonic acid]",3 to 30 µM,< 0.1 µM
"CN=S(C)(=O)CC1CN(C(=O)[C@@H]2CC[C@@H]3C[C@@H]4C[C@@H]4C[C@H](NC(=O)c4cc5cc(C(F)(F)P(=O)(O)O)ccc5s4)C(=O)N32)C1 (stereo partly drawn) [Compound 72, ((2-(((3S,6S,7aR,8aS,9aR)-3-(3-((N,S-dimethylsulfonimidoyl)methyl)azetidine-1-carbonyl)-5-oxodecahydro-1H-cyclopropa[d]pyrrolo[1,2-a]azocin-6-yl)carbamoyl)benzo[b]thiophen-5-yl)difluoromethyl)phosphonic acid]",3 to 30 µM,< 0.1 µM

# More lines, now with the values ahead:
IC50 [1],IC50 [2],SMILES
3 to 30 µM,< 0.1 µM,"O=C(N[C@H]1C[C@H]2C[C@H]2C[C@H]2CC[C@@H](C(=O)N3CC(CC(F)F)(c4ccccc4)C3)N2C1=O)c1cc2cc(C(F)(F)P(=O)(O)O)ccc2s1 [Compound 73, ((2-(((3S,6S,7aR,8aS,9aR)-3-(3-(2,2-difluoroethyl)-3-phenylazetidine-1-carbonyl)-5-oxodecahydro-1H-cyclopropa[d]pyrrolo[1,2-a]azocin-6-yl)carbamoyl)benzo[b]thiophen-5-yl)difluoromethyl)phosphonic acid]"
0.3 to 3 µM,< 0.1 µM,"N#Cc1ccc(C2CN(C(=O)[C@@H]3CC[C@@H]4C[C@@H]5C[C@@H]5C[C@H](NC(=O)c5cc6cc(C(F)(F)P(=O)(O)O)ccc6s5)C(=O)N43)C2)cc1 [Compound 74, ((2-(((3S,6S,7aR,8aS,9aR)-3-(3-(4-cyanophenyl)azetidine-1-carbonyl)-5-oxodecahydro-1H-cyclopropa[d]pyrrolo[1,2-a]azocin-6-yl)carbamoyl)benzo[b]thiophen-5-yl)difluoromethyl)phosphonic acid]"
3 to 30 µM,< 0.1 µM,"COC1(c2nccn2C)CN(C(=O)[C@@H]2CC[C@@H]3C[C@@H]4C[C@@H]4C[C@H](NC(=O)c4cc5cc(C(F)(F)P(=O)(O)O)ccc5s4)C(=O)N32)C1 [Compound 75, (difluoro(2-(((3S,6S,7aR,8aS,9aR)-3-(3-methoxy-3-(1-methyl-1H-imidazol-2-yl)azetidine-1-carbonyl)-5-oxodecahydro-1H-cyclopropa[d]pyrrolo[1,2-a]azocin-6-yl)carbamoyl)benzo[b]thiophen-5-yl)methyl)phosphonic acid]"
3 to 30 µM,< 0.1 µM,"Cn1cnnc1C1CN(C(=O)[C@@H]2CC[C@@H]3C[C@@H]4C[C@@H]4C[C@H](NC(=O)c4cc5cc(C(F)(F)P(=O)(O)O)ccc5s4)C(=O)N32)C1 [Compound 76, (difluoro(2-(((3S,6S,7aR,8aS,9aR)-3-(3-(4-methyl-4H-1,2,4-triazol-3-yl)azetidine-1-carbonyl)-5-oxodecahydro-1H-cyclopropa[d]pyrrolo[1,2-a]azocin-6-yl)carbamoyl)benzo[b]thiophen-5-yl)methyl)phosphonic acid]"
3 to 30 µM,< 0.1 µM,"O=C(N[C@H]1C[C@H]2C[C@H]2C[C@H]2CC[C@@H](C(=O)N3CC(c4[nH]nc5c4CCC5)C3)N2C1=O)c1cc2cc(C(F)(F)P(=O)(O)O)ccc2s1 [Compound 77, (difluoro(2-(((3S,6S,7aR,8aS,9aR)-5-oxo-3-(3-(2,4,5,6-tetrahydrocyclopenta[c]pyrazol-3-yl)azetidine-1-carbonyl)decahydro-1H-cyclopropa[d]pyrrolo[1,2-a]azocin-6-yl)carbamoyl)benzo[b]thiophen-5-yl)methyl)phosphonic acid]"
3 to 30 µM,< 0.1 µM,"O=C(N[C@H]1C[C@H]2C[C@H]2C[C@H]2CC[C@@H](C(=O)N3CC(c4nc5ccccc5[nH]4)C3)N2C1=O)c1cc2cc(C(F)(F)P(=O)(O)O)ccc2s1 [Compound 78, ((2-(((3S,6S,7aR,8aS,9aR)-3-(3-(1H-benzo[d]imidazol-2-yl)azetidine-1-carbonyl)-5-oxodecahydro-1H-cyclopropa[d]pyrrolo[1,2-a]azocin-6-yl)carbamoyl)benzo[b]thiophen-5-yl)difluoromethyl)phosphonic acid]"
3 to 30 µM,< 0.1 µM,"CC(C)C1(c2ccccc2)CN(C(=O)[C@@H]2CC[C@@H]3C[C@@H]4C[C@@H]4C[C@H](NC(=O)c4cc5cc(C(F)(F)P(=O)(O)O)ccc5s4)C(=O)N32)C1 [Compound 79, (difluoro(2-(((3S,6S,7aR,8aS,9aR)-3-(3-isopropyl-3-phenylazetidine-1-carbonyl)-5-oxodecahydro-1H-cyclopropa[d]pyrrolo[1,2-a]azocin-6-yl)carbamoyl)benzo[b]thiophen-5-yl)methyl)phosphonic acid]"
